# Reference: patent publication US5607929A, “Antiviral dibenzothiazepinone derivatives” (Glaxo Wellcome Inc., priority 1991, dated 1997)
# Tested on: HIV
# Test: HIV (MT4 assay), in vitro antiviral activity
# Format: cell-based
# Settings: not given
row,Molecule,IC50 [nM]
1,"4-fluorodibenzothiazepin-11(10H)-one-5,5-dioxide [15(iv)]",1800

# Same assay, conditions: Human immunodeficiency virus 1
row,Molecule,IC50 [nM]
1,"O=C1Nc2ccccc2Sc2c(F)cccc21 [14(iv), 4-Fluoro-10,11-dihydrobenzo[b,f][1,4]thiazepin-11-one]",1100
2,"CN1C(=O)c2cccc(F)c2Sc2ccccc21 [17(i), 4-Fluoro-10-methyl-10,11-dihydrobenzo[b,f][1,4] thiazepin-11-one]",700
3,"O=C1Nc2ccccc2S(=O)(=O)c2ccccc21 [Example 5, 10,11-Dihydrodibenzo[b,f][1,4]thiazepin-11-one-5,5-dioxide]",13000
4,"O=C1Nc2ccccc2Sc2c1cccc2C(F)(F)F [Example 7, 4-Trifluoromethyl-10,11-dihydrodibenzo[b,f][1,4]thiazepin-11-one]",2500
5,"CN1C(=O)c2cccc(C(F)(F)F)c2Sc2ccccc21 [Example 10, 10-Methyl-4-trifluoromethyl-10,11-dihydrodibenzo[b,f][1,4]thiazepin-11-one]",2800
6,"CSc1cccc2c1Sc1ccccc1NC2=O [Example 19, 4-Thiomethyl-10,11-dihydrodibenzo[b,f][1,4]thiazepin-11-one]",2300
7,"COc1ccc2c(c1)S(=O)(=O)c1ccccc1C(=O)N2 [Example 22, 7-Methoxy-10,11-dihydrodibenzo[b,f][1,4]thiazepin-11-one-5,5-dioxide]",12800
